Laboratory results: PMC7083565, “In vitro metabolism, reaction phenotyping, enzyme kinetics, CYP inhibition and induction potential of ataluren” (Pharmacology Research & Perspectives, 2020)
Read-outs that look alike come from different tables or passages of the source.

Target: T1, UGT1A9 (Homo sapiens, UniProt O60656)
T1 construct: purchased BD Biosciences; host or cells: baculovirus-infected insect cells
T1 sequence (O60656 26-530): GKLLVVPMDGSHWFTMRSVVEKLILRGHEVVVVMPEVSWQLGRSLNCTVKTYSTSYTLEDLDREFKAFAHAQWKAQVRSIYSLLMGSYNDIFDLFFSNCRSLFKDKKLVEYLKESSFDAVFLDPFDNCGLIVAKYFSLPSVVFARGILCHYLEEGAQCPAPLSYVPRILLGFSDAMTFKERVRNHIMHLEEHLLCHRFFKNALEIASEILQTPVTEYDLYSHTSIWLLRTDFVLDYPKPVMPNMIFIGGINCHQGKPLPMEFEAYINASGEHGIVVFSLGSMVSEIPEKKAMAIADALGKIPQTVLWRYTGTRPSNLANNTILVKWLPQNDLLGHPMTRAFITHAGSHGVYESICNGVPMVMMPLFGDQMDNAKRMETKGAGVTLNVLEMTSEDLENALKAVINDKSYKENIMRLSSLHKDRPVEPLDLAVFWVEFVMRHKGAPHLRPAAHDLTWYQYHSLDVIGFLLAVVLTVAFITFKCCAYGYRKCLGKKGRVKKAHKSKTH
Experiment: Ataluren glucuronidation kinetics, recombinant human UGT1A9
Type: in vitro ADME
Conditions: for K m / K m, u / V max: mean ± SE; for K m / K m, u / V max / fraction unbound at 15 min: n = 3; for microsomal CLint / fraction unbound at 15 min: human; for microsomal CLint: read-out: CLint,u,UGT; for fraction unbound at 15 min: recombinant human UGT1A9 incubation mixture, mean ± SD, read-out: fu,inc
Experimental: Ataluren at 0.5, 2.5, 12.5, 25, 50, 100, 200, and 400 µmol/L, was incubated (n = 3) at 37°C with recombinant human UGT1A9 and with pooled microsomes from human liver, kidney, and intestine (0.025 mg protein/mL, preactivated with alamethicin at 20 µg/mL) in Tris‐HCl buffer (0.1 mol/L, pH 7.5), in the presence of 1 mmol/L EDTA, 5 mmol/L MgCl2, with or without 0.5%, 1%, or 2% BSA. The incubation (100 µL final volume with 0.5% DMSO) was started by adding an equal volume of UDPGA (5 mmol/L) in Tris‐HCl buffer (0.1 mol/L, pH 7.5). After 30 minutes incubation, the incubation mixtures were combined with 0.3 mL of an internal standard solution in acetonitrile with 1% formic acid, followed by membrane plate filtration. The filtrates were used for LC‐MS/MS analysis to quantify the formation of ataluren‐O‐1β‐acyl glucuronide. Detailed LC‐MS/MS conditions are summarized in LC‐MS/MS Analysis section. Ataluren acyl glucuronide formation rate after 30 minutes incubation was calculated using the amount of metabolite formed (pmol) divided by the protein amount in the incubation sample (0.0025 mg) and the incubation time (30 minutes). Ataluren glucuronidation kinetic parameters were determined with and without adjusting BSA binding by nonlinear regression (GraphPad Prism, 5version 5.04, GraphPad Software, Inc.) using Michaelis‐Menten equation which was the best fit compared with other models. The intrinsic clearance was calculated as CLint = Vmax/Km. In order to compare unbound intrinsic clearance by glucuronidation (CLint,u,UGT) in different tissues, CLint,u,UGT was expressed per gram of tissue by correcting the values for the microsomal protein yield, resulting in scaled CLint,u,UGT. Microsomal protein yields of 40.0, 12.8, and 20.6 mg protein/g tissue were used for hepatic, renal, and intestinal data, respectively. ^26
The high‐throughput membrane ultrafiltration method ^27 was used to determine the fraction unbound in the incubation (n = 3). Incubation mixtures and procedures were essentially the same as the above except that UDPGA (5 mmol/L) was replaced with Tris‐HCl buffer (0.1 mol/L, pH 7.5). After 15 minutes incubation, aliquot was transferred to a Millipore Multiscreen Ultracel‐10 filter plate (10 kDa molecular mass cut off; EMD Millipore). The plate was centrifuged at 37°C and 3710 g. After 30 minutes centrifugation, aliquots of ultrafiltrates and incubation mixtures prior to ultrafiltration were quenched with an internal standard solution in acetonitrile, followed by membrane plate filtration. The filtrates were used for LC‐MS/MS analysis to quantify the concentration of ataluren. The same LC‐MS/MS conditions described above are summarized in LC‐MS/MS Analysis section. The free fraction = Cu/Cm, where Cu is the concentration of ataluren in the ultrafiltrate and Cm is the concentration of ataluren in the incubation system before centrifugation. Unbound Km (Km, u) was recalculated by applying Michaelis‐Menten equation using free ataluren concentrations after correcting BSA binding at each ataluren and BSA concentration level.
Quantification of ataluren‐O‐1β‐acyl glucuronide formation was conducted on an Accela pump and a PAL autosampler equipped with a TSQ Quantum Ultra mass spectrometer (Thermo Fisher Scientific). A Waters Acquity BEH column (C18, 1.7 µm, 50 × 2.1 mm; Waters Cooperation) was used and maintained at 50°C. The mobile phases were 0.1% formic acid in water (A) and acetonitrile (B). The flow rate was 0.6 mL/min and gradient program was as follows: linear gradient from 0% B to 95% B in 0.5 minutes and hold isocratic at 95% B for 1 minute; linear gradient from 95% B to 0% B in 0.1 minutes and hold isocratic at 0% B for 0.4 minutes. TSQ Quantum Ultra mass spectrometer was equipped with a heated electrospray ionization source operated in negative‐ion mode with a vaporizer temperature of 350°C, capillary temperature of 380°C, and spray voltage of 3 kV. […]

What does the source list for `O=C(O)c1cccc(-c2noc(-c3ccccc3F)n2)c1` [ataluren, Ataluren]?
K m (UGT1A9, 0% BSA): 4.76 ± 0.934 µM; K m, u (UGT1A9, 0% BSA): 4.76 ± 0.934 µM; V max (UGT1A9, 0% BSA): 1058 ± 31.8 pmol/min/mg; K m (UGT1A9, 0.5% BSA): 26.4 ± 2.80 µM; K m, u (UGT1A9, 0.5% BSA): 2.71 ± 0.309 µM; V max (UGT1A9, 0.5% BSA): 752 ± 20.3 pmol/min/mg; K m (UGT1A9, 1% BSA): 45.6 ± 3.83 µM; K m, u (UGT1A9, 1% BSA): 2.52 ± 0.243 µM; V max (UGT1A9, 1% BSA): 842 ± 23.0 pmol/min/mg; K m (UGT1A9, 2% BSA): 83.4 ± 15.3 µM; K m, u (UGT1A9, 2% BSA): 2.46 ± 0.498 µM; V max (UGT1A9, 2% BSA): 847 ± 56.2 pmol/min/mg; microsomal CLint (recombinant human UGT1A9, pH 7.5, UGT1A9, 0% BSA): 222 µL/min/mg; microsomal CLint (recombinant human UGT1A9, pH 7.5, UGT1A9, 0.5% BSA): 277 µL/min/mg; microsomal CLint (recombinant human UGT1A9, pH 7.5, UGT1A9, 1% BSA): 334 µL/min/mg; microsomal CLint (recombinant human UGT1A9, pH 7.5, UGT1A9, 2% BSA): 344 µL/min/mg; fraction unbound at 15 min (pH 7.5, UGT1A9, 0% BSA): 1 ± 0.5; fraction unbound at 15 min (pH 7.5, UGT1A9, 0.5% BSA): 0.116 ± 0.019; fraction unbound at 15 min (pH 7.5, UGT1A9, 1% BSA): 0.064 ± 0.007; fraction unbound at 15 min (pH 7.5, UGT1A9, 2% BSA): 0.035 ± 0.003; maximal effect of BSA on CLint,u (increase) (recombinant UGT1A9, with vs without BSA): approximately 1.6 fold
